Laboratory results published in the supplement of paper PMC10307832.

Columns and labels:
Assay in all cases: relative viability (nuclei count vs DMSO), 5 days (fraction); higher = more cells survive
ABC-1 = test system: ABC-1
Procedure, shortened: (§1)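 The day after seeding in 1536-well plates, lung cancer cell lines were treated by pin tool with a single drug, or with a fixed anchor-drug dose together with five library-drug doses (not always all listed) in √10 steps. After 5 days, a combined fix-and-stain solution (final 0.05% Triton X-100, 1% formaldehyde, 1 ug/ml Hoechst) was added. Nuclei counted on 4× images gave relative viability as treated counts over vehicle counts, reported as the median of duplicate plates.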

SW 900 = test system: SW 900
Procedure, shortened: as §1

LK-2 = test system: LK-2
Procedure, shortened: as §1

EMC-BAC-2 = test system: EMC-BAC-2
Procedure, shortened: as §1

HARA = test system: HARA
Procedure, shortened: as §1

NCI-H596 = test system: NCI-H596
Procedure, shortened: as §1

A-427 = test system: A-427
Procedure, shortened: as §1

NCI-H1944 = test system: NCI-H1944
Procedure, shortened: as §1

NCI-H727 = test system: NCI-H727
Procedure, shortened: as §1

NCI-H1792 = test system: NCI-H1792
Procedure, shortened: as §1

NCI-H1993 = test system: NCI-H1993
Procedure, shortened: as §1

NCI-H1793 = test system: NCI-H1793
Procedure, shortened: as §1

PC-3 [JPC-3] = test system: PC-3 [JPC-3]
Procedure, shortened: as §1

NCI-H2170 = test system: NCI-H2170
Procedure, shortened: as §1

LXF-289 = test system: LXF-289
Procedure, shortened: as §1

LU99A = test system: LU99A
Procedure, shortened: as §1

NCI-H3122 = test system: NCI-H3122
Procedure, shortened: as §1

HOP-62 = test system: HOP-62
Procedure, shortened: as §1

Clc1ccc(Nc2nnc(Cc3ccncc3)c3ccccc23)cc1 [Vatalanib] + NC(=O)Nc1cc(-c2cccc(F)c2)sc1C(=O)N[C@H]1CCCNC1 [AZD7762] (partner 0.2 µM)
relative viability (ABC-1; first compound 0.04 µM): 0.7 | relative viability (ABC-1; first compound 0.4 µM): 0.744 | relative viability (ABC-1; first compound 1.265 µM): 0.853 | relative viability (ABC-1; first compound 4 µM): 0.719 | relative viability (SW 900; first compound 0.04 µM): 0.596 | relative viability (SW 900; first compound 0.1265 µM): 0.653 | relative viability (SW 900; first compound 0.4 µM): 0.567 | relative viability (SW 900; first compound 1.265 µM): 0.69 | relative viability (SW 900; first compound 4 µM): 0.6 | relative viability (LK-2; first compound 0.04 µM): 0.394 | relative viability (LK-2; first compound 0.1265 µM): 0.412 | relative viability (LK-2; first compound 0.4 µM): 0.496 | relative viability (LK-2; first compound 1.265 µM): 0.353 | relative viability (LK-2; first compound 4 µM): 0.446 | relative viability (EMC-BAC-2; first compound 0.04 µM): 1.05 | relative viability (EMC-BAC-2; first compound 0.1265 µM): 0.991 | relative viability (EMC-BAC-2; first compound 0.4 µM): 1.12 | relative viability (EMC-BAC-2; first compound 4 µM): 1.15 | relative viability (HARA; first compound 0.04 µM): 0.41 | relative viability (HARA; first compound 0.1265 µM): 0.473 | relative viability (HARA; first compound 0.4 µM): 0.173 | relative viability (HARA; first compound 1.265 µM): 0.246 | relative viability (HARA; first compound 4 µM): 0.34 | relative viability (NCI-H596; first compound 0.04 µM): 1.11 | relative viability (NCI-H596; first compound 0.1265 µM): 1.25 | relative viability (NCI-H596; first compound 0.4 µM): 1.18 | relative viability (NCI-H596; first compound 1.265 µM): 1.1 | relative viability (NCI-H596; first compound 4 µM): 0.907 | relative viability (A-427; first compound 0.04 µM): 0.797 | relative viability (A-427; first compound 0.1265 µM): 0.736 | relative viability (A-427; first compound 0.4 µM): 0.761 | relative viability (A-427; first compound 4 µM): 0.64 | relative viability (NCI-H1944; first compound 0.04 µM): 0.467 | relative viability (NCI-H1944; first compound 0.1265 µM): 0.463 | relative viability (NCI-H1944; first compound 0.4 µM): 0.623 | relative viability (NCI-H1944; first compound 1.265 µM): 0.46 | relative viability (NCI-H1944; first compound 4 µM): 0.468 | relative viability (NCI-H727; first compound 0.1265 µM): 0.49 | relative viability (NCI-H727; first compound 0.4 µM): 0.774 | relative viability (NCI-H727; first compound 1.265 µM): 0.654 | relative viability (NCI-H727; first compound 4 µM): 0.538 | relative viability (NCI-H1792; first compound 0.04 µM): 0.723 | relative viability (NCI-H1792; first compound 0.1265 µM): 0.663 | relative viability (NCI-H1792; first compound 0.4 µM): 0.728 | relative viability (NCI-H1792; first compound 1.265 µM): 0.503 | relative viability (NCI-H1792; first compound 4 µM): 0.581 | relative viability (NCI-H1993; first compound 0.04 µM): 0.4 | relative viability (NCI-H1993; first compound 0.1265 µM): 0.934 | relative viability (NCI-H1993; first compound 0.4 µM): 0.728 | relative viability (NCI-H1993; first compound 1.265 µM): 0.713 | relative viability (NCI-H1993; first compound 4 µM): 0.737 | relative viability (NCI-H1793; first compound 0.04 µM): 0.518 | relative viability (NCI-H1793; first compound 0.1265 µM): 0.311 | relative viability (NCI-H1793; first compound 0.4 µM): 0.714 | relative viability (NCI-H1793; first compound 1.265 µM): 0.243 | relative viability (NCI-H1793; first compound 4 µM): 0.286 | relative viability (PC-3 [JPC-3]; first compound 0.04 µM): 0.81 | relative viability (PC-3 [JPC-3]; first compound 0.1265 µM): 0.751 | relative viability (PC-3 [JPC-3]; first compound 0.4 µM): 0.674 | relative viability (PC-3 [JPC-3]; first compound 1.265 µM): 0.705 | relative viability (PC-3 [JPC-3]; first compound 4 µM): 0.728 | relative viability (NCI-H2170; first compound 0.04 µM): 0.988 | relative viability (NCI-H2170; first compound 0.1265 µM): 0.77 | relative viability (NCI-H2170; first compound 0.4 µM): 0.892 | relative viability (NCI-H2170; first compound 1.265 µM): 0.837 | relative viability (NCI-H2170; first compound 4 µM): 0.785 | relative viability (LXF-289; first compound 0.04 µM): 1.14 | relative viability (LXF-289; first compound 0.1265 µM): 0.97 | relative viability (LXF-289; first compound 0.4 µM): 1.21 | relative viability (LXF-289; first compound 1.265 µM): 1.01 | relative viability (LXF-289; first compound 4 µM): 1.03 | relative viability (LU99A; first compound 0.04 µM): 0.351 | relative viability (LU99A; first compound 0.1265 µM): 0.442 | relative viability (LU99A; first compound 0.4 µM): 0.345 | relative viability (LU99A; first compound 1.265 µM): 0.258 | relative viability (LU99A; first compound 4 µM): 0.287 | relative viability (NCI-H3122; first compound 0.04 µM): 1.07 | relative viability (NCI-H3122; first compound 0.1265 µM): 0.969 | relative viability (NCI-H3122; first compound 0.4 µM): 1.02 | relative viability (NCI-H3122; first compound 1.265 µM): 0.966 | relative viability (NCI-H3122; first compound 4 µM): 0.995 | relative viability (HOP-62; first compound 0.04 µM): 0.792 | relative viability (HOP-62; first compound 0.1265 µM): 0.618 | relative viability (HOP-62; first compound 0.4 µM): 0.603 | relative viability (HOP-62; first compound 1.265 µM): 0.695 | relative viability (HOP-62; first compound 4 µM): 0.681
